Blank lines part the entries; values can stand above or below the compound they belong to.
Tested on: Rh18 complex spheroid viability, percent test/control
Test: Anticancer human tumor Rh18 cell line growth inhibition [Asc];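 note: spheroids exposed to compound for 7 days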;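 for viability, T/C: 100% = DMSO vehicle control wells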
Conditions: for IC50: curve of first compound; for viability, T/C: stronger effect = lower value
How it was run: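 Concentration series start at each agent's clinical Cmax, or at 10 microM when none is established, and drop in half-log steps; agents are applied alone or together to complex spheroids built with HUVEC and hMSC.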

- IC50 (second compound 0.03 µM): < 9.49 nM
- IC50 (second compound 0.0949 µM): < 9.49 nM
- IC50 (second compound 0.3 µM): < 9.49 nM
- IC50 (second compound 0.949 µM): < 9.49 nM
- IC50 (second compound 3 µM): < 9.49 nM
Structure (SMILES): Cc1nc(N2CCC3(CC2)COC(C)C3N)c(CO)nc1Sc1ccnc(N)c1Cl (centres undefined) + CCN1C(C(=O)NC23CCC(C(=O)O)(CC2)CC3)C(c2cccc(Cl)c2F)C2(C(=O)Nc3cc(Cl)ccc32)C12CCCCC2
- viability, T/C (second compound 0.03 µM, first compound 0.00949 µM): 27%
- viability, T/C (second compound 0.03 µM, first compound 0.03 µM): 25.9%
- viability, T/C (second compound 0.03 µM, first compound 0.0949 µM): 21.3%
- viability, T/C (second compound 0.03 µM, first compound 0.3 µM): 17.6%
- viability, T/C (second compound 0.03 µM, first compound 0.949 µM): 12.5%
- viability, T/C (second compound 0.03 µM, first compound 3 µM): 10.6%
- viability, T/C (second compound 0.0949 µM, first compound 0.00949 µM): 15.7%
- viability, T/C (second compound 0.0949 µM, first compound 0.03 µM): 14.1%
- viability, T/C (second compound 0.0949 µM, first compound 0.0949 µM): 12.6%
- viability, T/C (second compound 0.0949 µM, first compound 0.3 µM): 10.3%
- viability, T/C (second compound 0.0949 µM, first compound 0.949 µM): 10%
- viability, T/C (second compound 0.0949 µM, first compound 3 µM): 5.48%
- viability, T/C (second compound 0.3 µM, first compound 0.00949 µM): 10.6%
- viability, T/C (second compound 0.3 µM, first compound 0.03 µM): 11.8%
- viability, T/C (second compound 0.3 µM, first compound 0.0949 µM): 7.08%
- viability, T/C (second compound 0.3 µM, first compound 0.3 µM): 6.62%
- viability, T/C (second compound 0.3 µM, first compound 0.949 µM): 4.84%
- viability, T/C (second compound 0.3 µM, first compound 3 µM): 3.71%
- viability, T/C (second compound 0.949 µM, first compound 0.00949 µM): 7.44%
- viability, T/C (second compound 0.949 µM, first compound 0.03 µM): 6.92%
- viability, T/C (second compound 0.949 µM, first compound 0.0949 µM): 5.92%
- viability, T/C (second compound 0.949 µM, first compound 0.3 µM): 4.76%
- viability, T/C (second compound 0.949 µM, first compound 0.949 µM): 3.46%
- viability, T/C (second compound 0.949 µM, first compound 3 µM): 1.83%
- viability, T/C (second compound 3 µM, first compound 0.00949 µM): 5.58%
- viability, T/C (second compound 3 µM, first compound 0.03 µM): 7.16%
- viability, T/C (second compound 3 µM, first compound 0.0949 µM): 4.62%
- viability, T/C (second compound 3 µM, first compound 0.3 µM): 3.55%
- viability, T/C (second compound 3 µM, first compound 0.949 µM): 3.01%
- viability, T/C (second compound 3 µM, first compound 3 µM): 1.74%

- IC50 (second compound 0.00316 µM): 5080 nM
- IC50 (second compound 0.01 µM): 4310 nM
- IC50 (second compound 0.0316 µM): 3640 nM
- IC50 (second compound 0.1 µM): < 31.6 nM
- IC50 (second compound 0.316 µM): 1790 nM
- IC50 (second compound 1 µM): 3380 nM
Structure (SMILES): C#Cc1c(F)ccc2cc(O)cc(-c3ncc4c(N5CC6CCC(C5)N6)nc(OCC56CCCN5CC(F)C6)nc4c3F)c12 (centres undefined) + CNC(C)C(=O)NC1CN(S(=O)(=O)c2cccc(S(=O)(=O)N3CCC4CCC(C(=O)NC(c5ccccc5)c5ccccc5)N4C(=O)C(NC(=O)C(C)NC)C3)c2)CCC2CCC(C(=O)NC(c3ccccc3)c3ccccc3)N2C1=O
- viability, T/C (second compound 0.00316 µM, first compound 0.0316 µM): 67.1%
- viability, T/C (second compound 0.00316 µM, first compound 0.1 µM): 60.7%
- viability, T/C (second compound 0.00316 µM, first compound 0.316 µM): 64.5%
- viability, T/C (second compound 0.00316 µM, first compound 1 µM): 65%
- viability, T/C (second compound 0.00316 µM, first compound 3.16 µM): 70.7%
- viability, T/C (second compound 0.00316 µM, first compound 10 µM): 27.7%
- viability, T/C (second compound 0.01 µM, first compound 0.0316 µM): 57.4%
- viability, T/C (second compound 0.01 µM, first compound 0.1 µM): 60.7%
- viability, T/C (second compound 0.01 µM, first compound 0.316 µM): 50.2%
- viability, T/C (second compound 0.01 µM, first compound 1 µM): 74.8%
- viability, T/C (second compound 0.01 µM, first compound 3.16 µM): 63.9%
- viability, T/C (second compound 0.01 µM, first compound 10 µM): 18.9%
- viability, T/C (second compound 0.0316 µM, first compound 0.0316 µM): 63.2%
- viability, T/C (second compound 0.0316 µM, first compound 0.1 µM): 40.7%
- viability, T/C (second compound 0.0316 µM, first compound 0.316 µM): 52.2%
- viability, T/C (second compound 0.0316 µM, first compound 1 µM): 55.3%
- viability, T/C (second compound 0.0316 µM, first compound 3.16 µM): 61.5%
- viability, T/C (second compound 0.0316 µM, first compound 10 µM): 17.6%
- viability, T/C (second compound 0.1 µM, first compound 0.0316 µM): 40.1%
- viability, T/C (second compound 0.1 µM, first compound 0.1 µM): 52.3%
- viability, T/C (second compound 0.1 µM, first compound 0.316 µM): 40.3%
- viability, T/C (second compound 0.1 µM, first compound 1 µM): 61.9%
- viability, T/C (second compound 0.1 µM, first compound 3.16 µM): 50.9%
- viability, T/C (second compound 0.1 µM, first compound 10 µM): 14.1%
- viability, T/C (second compound 0.316 µM, first compound 0.0316 µM): 74.4%
- viability, T/C (second compound 0.316 µM, first compound 0.1 µM): 69%
- viability, T/C (second compound 0.316 µM, first compound 0.316 µM): 58.9%
- viability, T/C (second compound 0.316 µM, first compound 1 µM): 47.2%
- viability, T/C (second compound 0.316 µM, first compound 3.16 µM): 54.4%
- viability, T/C (second compound 0.316 µM, first compound 10 µM): 11.8%
- viability, T/C (second compound 1 µM, first compound 0.0316 µM): 78.2%
- viability, T/C (second compound 1 µM, first compound 0.1 µM): 50.2%
- viability, T/C (second compound 1 µM, first compound 0.316 µM): 45%
- viability, T/C (second compound 1 µM, first compound 1 µM): 51.6%
- viability, T/C (second compound 1 µM, first compound 3.16 µM): 53.3%
- viability, T/C (second compound 1 µM, first compound 10 µM): 10.5%

- IC50 (second compound 0.00316 µM): 12.3 nM
- IC50 (second compound 0.01 µM): 18.8 nM
- IC50 (second compound 0.0316 µM): 12.4 nM
- IC50 (second compound 0.1 µM): 15.6 nM
- IC50 (second compound 0.316 µM): < 9.49 nM
- IC50 (second compound 1 µM): 11.5 nM
Structure (SMILES): Cc1nc(N2CCC3(CC2)COC(C)C3N)c(CO)nc1Sc1ccnc(N)c1Cl (centres undefined) + CNC(C)C(=O)NC1CN(S(=O)(=O)c2cccc(S(=O)(=O)N3CCC4CCC(C(=O)NC(c5ccccc5)c5ccccc5)N4C(=O)C(NC(=O)C(C)NC)C3)c2)CCC2CCC(C(=O)NC(c3ccccc3)c3ccccc3)N2C1=O
- viability, T/C (second compound 0.00316 µM, first compound 0.00949 µM): 44.4%
- viability, T/C (second compound 0.00316 µM, first compound 0.03 µM): 60%
- viability, T/C (second compound 0.00316 µM, first compound 0.0949 µM): 34.7%
- viability, T/C (second compound 0.00316 µM, first compound 0.3 µM): 33.7%
- viability, T/C (second compound 0.00316 µM, first compound 0.949 µM): 23.2%
- viability, T/C (second compound 0.00316 µM, first compound 3 µM): 12.9%
- viability, T/C (second compound 0.01 µM, first compound 0.00949 µM): 56%
- viability, T/C (second compound 0.01 µM, first compound 0.03 µM): 48.8%
- viability, T/C (second compound 0.01 µM, first compound 0.0949 µM): 30.7%
- viability, T/C (second compound 0.01 µM, first compound 0.3 µM): 25.8%
- viability, T/C (second compound 0.01 µM, first compound 0.949 µM): 23.2%
- viability, T/C (second compound 0.01 µM, first compound 3 µM): 14.9%
- viability, T/C (second compound 0.0316 µM, first compound 0.00949 µM): 51.2%
- viability, T/C (second compound 0.0316 µM, first compound 0.03 µM): 45.7%
- viability, T/C (second compound 0.0316 µM, first compound 0.0949 µM): 31.2%
- viability, T/C (second compound 0.0316 µM, first compound 0.3 µM): 23.3%
- viability, T/C (second compound 0.0316 µM, first compound 0.949 µM): 23.4%
- viability, T/C (second compound 0.0316 µM, first compound 3 µM): 16.1%
- viability, T/C (second compound 0.1 µM, first compound 0.00949 µM): 63%
- viability, T/C (second compound 0.1 µM, first compound 0.03 µM): 32.3%
- viability, T/C (second compound 0.1 µM, first compound 0.0949 µM): 22.9%
- viability, T/C (second compound 0.1 µM, first compound 0.3 µM): 28.2%
- viability, T/C (second compound 0.1 µM, first compound 0.949 µM): 21.9%
- viability, T/C (second compound 0.1 µM, first compound 3 µM): 13.2%
- viability, T/C (second compound 0.316 µM, first compound 0.00949 µM): 45.9%
- viability, T/C (second compound 0.316 µM, first compound 0.03 µM): 24.1%
- viability, T/C (second compound 0.316 µM, first compound 0.0949 µM): 31.3%
- viability, T/C (second compound 0.316 µM, first compound 0.3 µM): 25.5%
- viability, T/C (second compound 0.316 µM, first compound 0.949 µM): 18.9%
- viability, T/C (second compound 0.316 µM, first compound 3 µM): 13.9%
- viability, T/C (second compound 1 µM, first compound 0.00949 µM): 54%
- viability, T/C (second compound 1 µM, first compound 0.03 µM): 30%
- viability, T/C (second compound 1 µM, first compound 0.0949 µM): 22%
- viability, T/C (second compound 1 µM, first compound 0.3 µM): 22.8%
- viability, T/C (second compound 1 µM, first compound 0.949 µM): 37.9%
- viability, T/C (second compound 1 µM, first compound 3 µM): 16.7%

Source: PubChem BioAssay AID1963431 (Molecular Pharmacology Branch, DTP, NCI, 2024)
